# Like-named read-outs stand apart in the source and are kept apart here.
# Legend:
# P-glycoprotein = system: P-glycoprotein; design: method as in earlier work; settings: cited from earlier work
# [1] = Oral and IV tracer PK and absolute bioavailability (part B); assay type: in vivo, human healthy male volunteers; settings: for bioavailability: 500 mg; for tlag / tmax: median (min–max)
# Description: Participants were hospitalized from day 1 to day 7 of the study, and further assessed on days 9, 11, and 14 (study end).
# In brief, the isotopically labeled internal standard [^2H]-MSC2156119A was added to 20 μL K2-ethylenediaminetetraacetic acid (EDTA) plasma. […] Samples were centrifuged and 10 μL aliquots of the supernatant were injected onto an Acquity Charged Surface Hybrid™ (CSH) C18 column (2.1 × 50 mm; […]; Waters, Milford, Massachusetts, USA). Separation was carried out using a mobile phase gradient (eluent A: water/formic acid [100 + 1, v/v]; eluent B: acetonitrile/formic acid [100 + 1, v/v]) with a flow rate of 0.6 mL/min. […] The lower limit of quantification (LLOQ) was 5.00 ng/mL, and the calibration standard responses were linear over the range between 5.00 and 2500 ng/mL using a weighted (1/x^2) linear regression.
# The accelerator mass spectrometry (AMS) analysis of [^14C]-tepotinib in plasma samples in part B of the trial was performed by Eckert & Ziegler Vitalea Science (Davis, California, USA) using a validated method that involves isolation of the analyte by ultra-high-performance liquid chromatography (UPLC) fractionation, followed by the quantification of the ^14C content in collected fractions using AMS [26]. […] Following protein precipitation and further chemical steps, 50 μL of the reconstituted extracts were injected onto a Waters Acquity UPLC instrument equipped with a CSH fluoro-phenyl analytical column (3.0 × 100 mm; 1.7 μm; Waters, Milford, Massachusetts, USA) and an ethylene bridged hybrid C18 (2.1 × 5 mm; 1.7 μm; Waters, Milford, Massachusetts, USA) pre-column. Separation of [^14C]-tepotinib from potentially interfering metabolites or degradants that may have been present in the study samples was carried out using a mobile phase gradient (eluent A: 5 mM ammonium acetate in water; eluent B: acetonitrile) with a flow rate of 0.75 mL/min. […] Samples were then introduced into the BioMICADAS AMS instrument (PSI/ETH, Zurich, Switzerland). The LLOQ was 0.0883 pg/mL.
# (§1) The maximum plasma concentration (Cmax) and time to reach maximum concentration (tmax) were derived directly from the plasma concentration–time data. Lag time (tlag) was the time prior to the first measurable (non-zero) concentration. The area under the plasma concentration–time curve from 0 to t (last measurable concentration; AUC0–t) was calculated using a mixed log–linear trapezoidal method. Area under the plasma concentration–time curve until the last sampling time (AUCall), which corresponds to AUC0–240 h within the observation period, was used for metabolite calculations. Amounts excreted in urine, feces, and total (urine + feces) were calculated as the sum of amounts (concentration multiplied by volume) for each collection from time 0 to time t. The terminal rate constant (λz) was used to estimate the terminal half-life (t½) (ln 2/λz), and the area under the concentration–time curve from time 0 to infinity (AUC0–∞). Total body clearance (CL) and apparent body clearance (CL/f) were determined by dose/AUC0–∞, and total volume of distribution (Vz) and apparent volume of distribution (Vz/f) were calculated by dose/(AUC0–∞*λz) after IV and oral administration, respectively. Volume of distribution of the central compartment (Vc) was derived by dividing the dose by the initial drug plasma concentration after IV administration. Absolute bioavailability was calculated as F = (AUCoral/doseoral)/(AUCIV/doseIV) × 100. The ratios (%) AUCtepotinib or metabolite/AUCtotal radioactivity were calculated as a percentage of the molar AUCs.
# [2] = design: method as in PMID 23553846; settings: xenograft mice; cited from earlier work
# [3] = Metabolite profiling and identification in plasma, urine and feces (part A); assay type: in vivo, human healthy male volunteers; settings: oral part A
# Description: Participants were hospitalized from day 1 to day 16 of the study, and further assessed on days 19, 22, and 25 (trial end). […] Pre-dose feces and urine samples were collected on day 1 and day 2, respectively. Urine was collected at 4- to 12-h intervals on day 1 and every 24 h thereafter up to day 16. Feces were collected every 24 h up to day 16. Provision was made to collect further samples up to day 39 if >1% of the administered dose was detectable in the total (urine and feces) excreta per day on two consecutive measurements.
# Metabolite profiling and structure elucidation in plasma, urine, and feces were performed at the Institute of Drug Metabolism and Pharmacokinetics, Merck KGaA, Grafing, Germany, using a radiometric UPLC method coupled to a high-resolution MS. For urine and feces, metabolites were identified in a single pooled sample per matrix and subject (urine pool of 4–120 h and feces pool of 0–192 h), that covered at least 90% of the total radioactivity of the respective matrix excreted. Intervals with low radioactivity were not used for the generation of the pooled samples to avoid dilution, and to increase the signal-to-noise ratio of the respective chromatograms.
# The metabolite structure elucidation was performed using the linear trap quadrupole Orbitrap XL hybrid Fourier transform (FT) MS (Thermo Scientific, Dreieich, Germany) coupled to a Waters Acquity UPLC system. Full-scan FT spectra were acquired for measurement of the masses of molecular ions of parent and metabolites. MS^2 fragmentation spectra were acquired after high-energy collisional dissociation of the appropriate molecular ions. Allocation and confirmation of the proposed metabolites to the radioactive peaks were performed using an API4000 QTrap (AB Sciex, Darmstadt, Germany) MS with simultaneous splitting using a fraction collection system (CTC HTS PAL Fraction Collector, Axel Semrau, Sprockhövel, Germany), and offline radioactive measurement using a Topcount NXT® microplate scintillation counter (PerkinElmer, Rodgau, Germany).
# as §1
# [4] = design: method as in PMID 31822497; settings: patients with solid tumors; cited from earlier work
# [5] = single oral 500 mg tablet, geometric mean (geometric CV%), min–max
# [6] = single oral 500 mg tablet, listed as tepotinib
smiles,measurement,setting,value
CN1CCC(COc2cnc(-c3cccc(Cn4nc(-c5cccc(C#N)c5)ccc4=O)c3)nc2)CC1 [Tepotinib],P-glycoprotein substrate status,P-glycoprotein,substrate of the drug efflux transporter P-glycoprotein
same,"absolute bioavailability, inter-individual variability (geometric CV)","[1]; 500 mg tablet vs IV tracer, n=6",10.8%
same,Vc,"[1]; IV tracer, geometric mean (geometric CV%), min–max",34.6 L
same,t½,"[1]; IV tracer, geometric mean (geometric CV%), min–max, plasma",31.2 h
same,bioavailability,"[1]; male, human, in vivo, geometric mean, 500 mg phase II tablet formulation vs IV tracer, n=6, read-out: absolute bioavailability",72%
same,bioavailability,"[1]; male, human, in vivo, range, 500 mg tablet vs IV tracer, n=6, read-out: absolute bioavailability, range",62 to 81%
same,clearance,"[1]; male, human, in vivo, IV tracer, geometric mean (geometric CV%), min–max",213 mL/min
same,Vd,"[1]; male, human, in vivo, IV tracer, geometric mean (geometric CV%), min–max, read-out: Vz",574 L
same,Vd/F,"[1]; male, human, in vivo, single oral 500 mg tablet, geometric mean (geometric CV%), min–max, read-out: Vz/f",726 L
same,half-life,"[1]; male, human, in vivo, summary statement in the discussion",30 h
same,CL/f,[1]; [5],17.8 L/h
same,t½,[1]; [5],28.3 h
same,tlag,[1]; single oral 500 mg tablet,0.52 (0.25–2.0) Hours
same,tmax,[1]; single oral 500 mg tablet,10.0 (3.0–10.0) Hours
same,tlag,[1]; [6],0.5 h
same,tmax,[1]; [6],10 h
same,tumor versus plasma concentration,[2],higher concentrations in xenograft tumors than in the plasma of mice
same,% of total radioactive administered dose excreted in feces or urine (excreta),[3]; feces plus urine,52%
same,% of total administered radioactive dose excreted in feces,[3]; feces pool 0–192 h,45%
same,% of AUCall of total 14C-radioactivity in plasma,"[3]; plasma, AUCall = AUC0–240 h, molar AUC ratio",55%
same,% of total administered radioactive dose excreted in urine,[3]; urine pool 4–120 h,7%
same,maximum tolerated dose (not reached at doses administered),[4],> 1400 mg/day

# Source: paper PMC7497692 (Investigational New Drugs, 2020)
